# Measured values reported in ChEMBL document CHEMBL3232888, “Optimization of anti-virulence PqsR antagonists regarding aqueous solubility and biological properties resulting in new insights in structure-activity relationships” (Eur J Med Chem, 2014).
# Experiments:
# [1] = Aqueous solubility of the compound in 2% DMSO at pH 7.4 by HPLC analysis; assay type: physicochemical; conditions: aqueous medium with 2% DMSO
# Pseudomonas aeruginosa [2] = assay: Agonist activity at Pseudomonas aeruginosa PqsR expressed in Escherichia coli DH5alpha assessed as induction of transcriptional activity at 5 uM by beta-galactosidase reporter gene assay relative to PQS
# Pseudomonas aeruginosa [3] = assay: Antagonist activity at Pseudomonas aeruginosa PqsR expressed in Escherichia coli DH5alpha assessed as inhibition of PQS-induced transcriptional activity at 50 nM by beta-galactosidase reporter gene assay relative to PQS
# Pseudomonas aeruginosa [4] = assay: Antagonist activity at Pseudomonas aeruginosa PqsR expressed in Escherichia coli DH5alpha assessed as inhibition of PQS-induced transcriptional activity at 5 uM by beta-galactosidase reporter gene assay relative to PQS
# Pseudomonas aeruginosa [5] = assay: Agonist activity at Pseudomonas aeruginosa PqsR expressed in Escherichia coli DH5alpha assessed as induction of transcriptional activity at 1 uM by beta-galactosidase reporter gene assay relative to PQS
# [6] = Antagonist activity at Pseudomonas aeruginosa PqsR expressed in Escherichia coli DH5alpha assessed as inhibition of PQS-induced transcriptional activity by beta-galactosidase reporter gene assay relative to PQS
# Pseudomonas aeruginosa [7] = assay: Antivirulence activity in Pseudomonas aeruginosa PA14 assessed as reduction of extracellular level of PQS at 15 uM by UHPLC-MS/MS analysis relative to control; assay type: functional; parameters: scale not given: the % may be the effect or the level left
# Pseudomonas aeruginosa [8] = assay: Antivirulence activity in Pseudomonas aeruginosa PA14 assessed as reduction of extracellular level of pyocyanin at 15 uM relative to control; assay type: functional; parameters: scale not given: the % may be the effect or the level left
# Pseudomonas aeruginosa [9] = assay: Growth inhibition of Pseudomonas aeruginosa; assay type: organism-based; conditions: in vivo
# Pseudomonas aeruginosa [10] = assay: Antivirulence activity in Pseudomonas aeruginosa PA14 assessed as reduction of extracellular level of PQS at 250 uM by UHPLC-MS/MS analysis relative to control; assay type: functional; parameters: scale not given: the % may be the effect or the level left
# Pseudomonas aeruginosa [11] = assay: Antivirulence activity in Pseudomonas aeruginosa PA14 assessed as reduction of extracellular level of pyocyanin at 250 uM relative to control; assay type: functional; parameters: scale not given: the % may be the effect or the level left
# Pseudomonas aeruginosa [12] = assay: Antivirulence activity in Pseudomonas aeruginosa PA14 assessed as reduction of extracellular level of pyocyanin; assay type: functional
# [13] = Metal chelating activity of the compound assessed as CAS iron-chelation after 15 mins; assay type: physicochemical; conditions: 0.25 h
# Pseudomonas aeruginosa [14] = assay: Antivirulence activity in Pseudomonas aeruginosa PA14 assessed as reduction of extracellular level of PQS at 100 uM by UHPLC-MS/MS analysis relative to control; assay type: functional; parameters: scale not given: the % may be the effect or the level left
# Pseudomonas aeruginosa [15] = assay: Antivirulence activity in Pseudomonas aeruginosa PA14 assessed as reduction of extracellular level of pyocyanin at 100 uM relative to control; assay type: functional; parameters: scale not given: the % may be the effect or the level left
# Pseudomonas aeruginosa [16] = assay: Agonist activity at Pseudomonas aeruginosa PqsR expressed in Escherichia coli DH5alpha assessed as induction of transcriptional activity at 10 uM by beta-galactosidase reporter gene assay relative to PQS
# Pseudomonas aeruginosa [17] = assay: Antivirulence activity in Pseudomonas aeruginosa PA14 assessed as reduction of extracellular level of PQS at 10 uM by UHPLC-MS/MS analysis relative to control; assay type: functional; parameters: scale not given: the % may be the effect or the level left
# Pseudomonas aeruginosa [18] = assay: Antivirulence activity in Pseudomonas aeruginosa PA14 assessed as reduction of extracellular level of pyocyanin at 10 uM relative to control; assay type: functional; parameters: scale not given: the % may be the effect or the level left
SMILES,solubility [1],Activity (Pseudomonas aeruginosa [2]),inhibition (Pseudomonas aeruginosa [3]),inhibition (Pseudomonas aeruginosa [4]),IC50 [6],Activity (Pseudomonas aeruginosa [9]),other results
CCCCCCCc1cc(=O)c2ccccc2[nH]1,,,,,,,Activity (Pseudomonas aeruginosa [5]): 0.75%
CCCCCCCc1cc(O)c2ccccc2n1,15 µM,,,,,,
CCCCCCCc1cc(=O)c2cc(C(F)(F)F)ccc2n1C,5 µM,0%,31%,100%,0.27 µM,Non-toxic,Activity (Pseudomonas aeruginosa [7]): 8.9%; Activity (Pseudomonas aeruginosa [8]): 58%
CCCCCCCc1cc(=O)c2cnccc2[nH]1,50 µM,0.82%,8%,2%,,,
CCOCCCCc1cc(=O)c2cc(C(F)(F)F)ccc2[nH]1,> 200 µM,0.02%,8%,69%,1.71 µM,Non-toxic,Activity (Pseudomonas aeruginosa [10]): 8.6%; Activity (Pseudomonas aeruginosa [11]): 39%
CCCCCCCc1[nH]c2ccc([N+](=O)[O-])cc2c(=O)c1CO,5 µM,0%,45%,100%,0.072 µM,Non-toxic,Activity (Pseudomonas aeruginosa [7]): 33%; Activity (Pseudomonas aeruginosa [8]): 83%; IC50 (Pseudomonas aeruginosa [12]): 3.8 µM; Activity [13]: Not Active
CCOCCCCc1cc(=O)c2cc([N+](=O)[O-])ccc2[nH]1,50 µM,0.13%,6%,72%,3.51 µM,Non-toxic,Activity (Pseudomonas aeruginosa [14]): 13%; Activity (Pseudomonas aeruginosa [15]): 23%
CCCCCOCc1cc(=O)c2ccccc2[nH]1,> 200 µM,0.89%,11%,6%,,,
CCCCCCCc1cc(OC)c2ccccc2n1,5 µM,0.03%,-23%,-6%,,,
CCCCCOCc1cc(=O)c2cc(C(F)(F)F)ccc2[nH]1,15 µM,0%,29%,100%,0.172 µM,Non-toxic,Activity (Pseudomonas aeruginosa [7]): 21%; Activity (Pseudomonas aeruginosa [8]): 29%
CCOCCCCc1cc(=O)c2ccccc2[nH]1,> 200 µM,0.31%,54%,42%,,,
CCCCCCc1cc(=O)c2cc(C(F)(F)F)ccc2n1C,15 µM,0%,45%,100%,0.229 µM,Non-toxic,
CCCCCCCc1[nH]c2ccc([N+](=O)[O-])cc2c(=O)c1C(N)=O,15 µM,0%,60%,100%,0.035 µM,Non-toxic,Activity (Pseudomonas aeruginosa [7]): 37%; Activity (Pseudomonas aeruginosa [8]): 81%; IC50 (Pseudomonas aeruginosa [12]): 2 µM; Activity [13]: Not Active
CCCCCCCc1cc(=O)c2cc([N+](=O)[O-])ccc2[nH]1,< 5 µM,,73%,100%,0.051 µM,Non-toxic,Activity (Pseudomonas aeruginosa [16]): 0%; Activity (Pseudomonas aeruginosa [7]): 14%; Activity (Pseudomonas aeruginosa [8]): 44%
CCCCCCCc1cc(=O)c2cc(C(F)(F)F)ccc2[nH]1,< 5 µM,0%,54%,100%,0.054 µM,Non-toxic,Activity (Pseudomonas aeruginosa [17]): 2.4%; Activity (Pseudomonas aeruginosa [18]): 27%
CCCCCCCc1[nH]c2ccncc2c(=O)c1C(=O)OCC,50 µM,0.02%,24%,76%,,,
CCCCCOCc1cc(=O)c2cc([N+](=O)[O-])ccc2[nH]1,15 µM,0%,49%,100%,0.253 µM,Non-toxic,Activity (Pseudomonas aeruginosa [7]): 23%; Activity (Pseudomonas aeruginosa [8]): 27%

# More lines, main results first:
solubility [1],Activity (Pseudomonas aeruginosa [2]),inhibition (Pseudomonas aeruginosa [3]),inhibition (Pseudomonas aeruginosa [4]),SMILES,IC50 [6],Activity (Pseudomonas aeruginosa [9]),other results
< 5 µM,0.84%,14%,17%,CCCCCCCc1[nH]c2ccccc2c(=O)c1[N+](=O)[O-],,,
< 5 µM,1.25%,-31%,-29%,CCCCCCCc1[nH]c2ccc([N+](=O)[O-])cc2c(=O)c1O,,,
15 µM,0%,2%,13%,CCCCCOCc1[nH]c2ccc([N+](=O)[O-])cc2c(=O)c1C(=O)OCC,,,
15 µM,0.73%,12%,41%,CCCCCCCc1[nH]c2ccccc2c(=O)c1C(=O)O,,,
5 µM,0%,18%,32%,CCCCCCCc1[nH]c2ccccc2c(=O)c1C(=O)OCC,,,
> 200 µM,0.3%,30%,78%,CCCCCCCc1[nH]c2ccc([N+](=O)[O-])cc2c(=O)c1C(=O)NO,,,
50 µM,0.49%,5%,28%,CCCCCCCc1[nH]c2ccccc2c(=O)c1CO,,,
50 µM,0.66%,6%,20%,CCCCCCCc1[nH]c2ccncc2c(=O)c1C(=O)O,,,
5 µM,0%,-8%,20%,CCCCCCCc1[nH]c2ccc([N+](=O)[O-])cc2c(=O)c1C(=O)OCC,,,
50 µM,0.48%,7%,6%,CCCCCOCc1[nH]c2ccc([N+](=O)[O-])cc2c(=O)c1C(=O)O,,,
50 µM,1.22%,-4%,-7%,CCCCCCCc1[nH]c2ccccc2c(=O)c1N,,,
> 200 µM,0.83%,15%,29%,CCCCCCCc1[nH]c2ccccc2c(=O)c1C(=O)NO,,,
5 µM,0.65%,8%,27%,CCCCCCCc1[nH]c2ccccc2c(=O)c1C(N)=O,,,
50 µM,0.42%,1%,33%,CCOCCCCc1[nH]c2ccc([N+](=O)[O-])cc2c(=O)c1C(=O)O,,,
15 µM,0.78%,11%,34%,CCCCCCCc1[nH]c2ccc([N+](=O)[O-])cc2c(=O)c1C(=O)O,,,
5 µM,0.09%,2%,27%,CCOCCCCc1[nH]c2ccc([N+](=O)[O-])cc2c(=O)c1C(=O)OCC,,,
